Molecular target: T1, Nuclear receptor ROR-gamma (Homo sapiens, UniProt P51449)
T1 sequence (P51449 whole entry): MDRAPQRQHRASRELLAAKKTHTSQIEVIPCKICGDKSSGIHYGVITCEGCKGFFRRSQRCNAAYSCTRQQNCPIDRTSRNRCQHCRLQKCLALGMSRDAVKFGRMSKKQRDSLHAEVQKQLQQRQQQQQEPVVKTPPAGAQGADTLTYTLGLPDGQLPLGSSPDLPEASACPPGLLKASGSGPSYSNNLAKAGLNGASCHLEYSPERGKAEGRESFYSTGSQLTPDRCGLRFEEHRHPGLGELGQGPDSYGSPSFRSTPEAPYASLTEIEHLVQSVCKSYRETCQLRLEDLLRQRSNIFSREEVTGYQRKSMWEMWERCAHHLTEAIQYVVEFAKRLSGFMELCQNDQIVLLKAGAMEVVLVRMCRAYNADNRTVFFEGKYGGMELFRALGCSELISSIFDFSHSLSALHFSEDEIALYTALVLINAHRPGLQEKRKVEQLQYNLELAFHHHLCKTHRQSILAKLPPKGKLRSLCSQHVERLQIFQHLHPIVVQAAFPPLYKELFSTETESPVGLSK
Assay: Radio-Ligand Binding Assay: ROR gamma radioligand binding was performed using 3H 25-Hydroxycholesterol in a competitive displacement assay using dextran charcoal method. Using 5 nM 3H 25-Hydroxycholesterol with 300 ng RORγ LBD (in house expressed in E. coli) along with the compound were incubated in the binding buffer (50 mM HEPES, pH 7.5, 150 mM NaCl, 0.01% BSA and 5 mM MgCl2) for 30 min at room temperature. Then dextran-charcoal mixture (0.5% charcoal: 0.05% dextran) was used for separation and the supernatant was read on the Perkin Elmer Trilux Microbeta counter. Dose response curves were generated for 10 compound concentrations using GraphPad Prism software Version 5 (San Diego, Calif., USA) using non-linear regression curve fit for sigmoidal dose response (variable slope).

CCS(=O)(=O)c1ccc(CC(=O)Nc2cc(C)c3c(n2)CCC(C)(c2ccc(OC)nn2)C3=O)cc1 (single isomer, unassigned)
IC50: > 300 nM
